Laboratory results as given in patent publication US7273856B2, “Linear basic compounds having NK-2 antagonist activity and formulations thereof” (Menarini Ricerche S.P.A., priority 2001, dated 2007).
Values joined by “and” are separate entries in the source; they are usually repeats but may differ in a detail not shown here. Equal entries are not always repeated. Structures can show the parent of a compound that is named as a salt.

Each molecule was assayed against T1, human NK-2 receptor (Homo sapiens, UniProt P21452) (assay: binding test, affinity for the human NK-2 receptor, competition with [125I]NKA on transfected CHO cell membranes). Details: CHO cell membranes transfected with NK-2 receptor of human ileum; [125I]NKA 100 pM; 30 min, 20° C.
T1 construct: expressed in transfected cells; host or cells: CHO (Chinese hamster ovary) cells, membranes
T1 sequence (P21452 1-398): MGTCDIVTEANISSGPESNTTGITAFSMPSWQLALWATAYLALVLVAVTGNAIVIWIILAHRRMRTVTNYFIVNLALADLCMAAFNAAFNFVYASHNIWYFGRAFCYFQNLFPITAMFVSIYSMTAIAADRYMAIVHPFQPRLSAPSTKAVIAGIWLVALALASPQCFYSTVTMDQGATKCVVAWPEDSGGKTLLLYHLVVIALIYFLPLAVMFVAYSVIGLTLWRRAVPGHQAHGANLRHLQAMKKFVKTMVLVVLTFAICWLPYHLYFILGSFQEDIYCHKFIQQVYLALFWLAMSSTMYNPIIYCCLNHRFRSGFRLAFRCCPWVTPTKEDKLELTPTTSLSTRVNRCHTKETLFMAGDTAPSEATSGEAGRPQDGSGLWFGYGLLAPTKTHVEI
Experimental: The evaluation of the antagonist activity on NK-2 receptors has been assessed by binding and functional tests according to that already described in literature in relation to NK-2 antagonists.
The test substances have been tested within a concentration range from 0.01 nM to 10 nM. At the end of the incubation time (30 min, 20° C.) the samples have been filtered and radioactivity has been determined using a gamma-counter.

Row | Compound | Ki
1 | O=C(NC1(C(=O)N[C@H](Cc2ccccc2)C(=O)NCC2CCN(C3CCOCC3)CC2)CCCC1)c1ccc2cc(Br)ccc2c1 [Example 80, 6-Bromo-naphthalene-2-carboxylic acid [1-(2-phenyl-1(R)-{[1-(tetrahydro-pyran-4-yl)-piperidin-4-ylmethyl]-carbamoyl}-ethylcarbamoyl)-cyclopentyl]-amide] | 0.251 nM
2 | O=C(NC1(C(=O)N[C@H](Cc2ccccc2)C(=O)NCC2CCN(CC3COCOC3)CC2)CCCC1)c1ccc2cc(Br)ccc2c1 [Example 89, 6-Bromo-naphthalene-2-carboxylic acid (1-{1(R)-[(1-[1,3]dioxan-5-ylmethyl-piperidin-4-ylmethyl)-carbamoyl]-2-phenyl-ethylcarbamoyl}-cyclopentyl)-amide] | 0.126 nM
3 | O=C(NC1(C(=O)N[C@H](Cc2ccccc2)C(=O)NCC2CCN(CC3COCOC3)CC2)CCCC1)c1cc2cc(Cl)ccc2o1 [Example 91, 5-Chloro-benzofuran-2-carboxylic acid (1-{1(R)-[(1-[1,3]dioxan-5-ylmethyl-piperidin-4-ylmethyl)-carbamoyl]-2-phenyl-ethylcarbamoyl}-cyclopentyl)-amide] | 1 nM
4 | O=C(NC1(C(=O)N[C@H](Cc2ccccc2)C(=O)NCC2CCN(C3CCSCC3)CC2)CCCC1)c1cc2cc(Cl)ccc2o1 [Example 93, 5-Chloro-benzofuran-2-carboxylic acid [1-(2-phenyl-1(R)-{[1-(tetrahydro-thiopyran-4-yl)-piperidin-4-ylmethyl]-carbamoyl}-ethylcarbamoyl)cyclopentyl]-amide] | 0.0794 nM
5 | NC1(C(=O)N2CCC(CNC(=O)[C@@H](Cc3ccccc3)NC(=O)C3(NC(=O)c4ccc5cc(Br)ccc5c4)CCCC3)CC2)CCCCC1 [Example 97, 6-Bromo-naphthalene-2-carboxylic acid [1-(1(R)-{[1-(1-amino-cyclohexanecarbonyl)-piperidin-4-ylmethyl]-carbamoyl}-2-phenyl-ethylcarbamoyl)-cyclopentyl]-amide] | 0.02 nM
6 | O=C(NC1(C(=O)N[C@H](Cc2ccccc2)C(=O)NCCC2CCN(C(=O)[C@H]3CCCN3)CC2)CCCC1)c1ccc2cc(Br)ccc2c1 [Example 99, 6-Bromo-naphthalene-2-carboxylic acid [1-(2-phenyl-1(R)-{2-[1-(pyrrolidine-2(R)-carbonyl)-piperidin-4-yl]-ethylcarbamoyl}-ethylcarbamoyl)-cyclopentyl]-amide] | 0.316 nM
7 | O=C(NC1(C(=O)N[C@H](Cc2ccccc2)C(=O)NCCCN2CCOCC2)CCCC1)c1cc2cc(Cl)ccc2o1 [Example 102, 5-Chloro-benzofuran-2-carboxylic acid {1-[1R-(3-morpholin-4-yl-propylcarbamoyl)-2-phenyl-ethylcarbamoyl]-cyclopentyl}-amide] | 0.501 nM
8 | O=C(NC1(C(=O)N[C@H](Cc2ccccc2)C(=O)NCCCN2CCOCC2)CCCC1)c1cc2cc(Br)ccc2o1 [Example 104, 5-Bromo-benzofuran-2-carboxylic acid {1-[1R-(3-morpholin-4-yl-propylcarbamoyl)2-phenyl-ethylcarbamoyl]-cyclopentyl}-amide] | 0.501 nM and 0.316 nM
9 | Cn1c(C(=O)NC2(C(=O)N[C@H](Cc3ccccc3)C(=O)NCCCN3CCOCC3)CCCC2)cc2ccc(Cl)cc21 [Example 111, 6-Chloro-1-methyl-1H-indole-2-carboxylic acid {1-[1R-(3-morpholin-4-yl-propylcarbamoyl)-2-phenyl-ethylcarbamoyl]-cyclopentyl}-amide] | 0.2 nM
10 | Cc1ccc2c(c1)cc(C(=O)NC1(C(=O)N[C@H](Cc3ccccc3)C(=O)NCCCN3CCOCC3)CCCC1)n2C [Example 114, 1,5-Dimethyl-1H-indole-2-carboxylic acid {1-[1R-(3-morpholinyl-propylcarbamoyl)-2-phenyl-ethylcarbamoyl]-cyclopentyl}-amide] | 1.58 nM
11 | O=C(NC1(C(=O)N[C@H](Cc2ccccc2)C(=O)NCCCN2CCOCC2)CCCC1)c1cc2ccc(Cl)c(Cl)c2s1 [Example 116, 6,7-Dichloro-benzo[b]thiophene-2-carboxylic acid {1-[1R-(3-morpholin-4-yl-propylcarbamoyl)-2-phenyl-ethylcarbamoyl]-cyclopentyl}-amide] | 0.316 nM

More lines, now with the values ahead:

Row | Ki | Compound
12 | 1 nM | O=C(NC1(C(=O)N[C@H](Cc2ccccc2)C(=O)NCC2CCN(CCC3CCOCC3)CC2)CCCC1)c1cc2ccccc2s1 [Example 78, Benzo[b]thiophene-2-carboxylic acid {1-[2-phenyl-1(R)-({1-[2-(tetrahydro-pyran-4-yl)-ethyl]-piperidin-4-ylmethyl}-carbamoyl)-ethylcarbamoyl]-cyclopentyl}-amide]
13 | 0.0631 nM | O=C(NC1(C(=O)N[C@H](Cc2ccccc2)C(=O)NCC2CCN(CC3CCCCC3)CC2)CCCC1)c1cc2ccccc2s1 [Example 79, Benzo[b]thiophene-2-carboxylic acid (1-{1(R)-[(1-cyclohexylmethyl-piperidin-4 ylmethyl)-carbamoyl]-2-phenyl-ethylcarbamoyl}-cyclopentyl)-amide]
14 | 0.0794 nM | O=C(NC1(C(=O)N[C@H](Cc2ccccc2)C(=O)NCC2CCN(C3CCSCC3)CC2)CCCC1)c1cc2ccccc2s1 [Example 81, Benzo[b]thiophene-2-carboxylic acid [1-(2-phenyl-1(R)-{[1-(tetrahydro-thiopyran-4-yl)-piperidin-4-ylmethyl]-carbamoyl}-ethylcarbamoyl)-cyclopentyl]-amide TFA salt]
15 | 0.1 nM | O=C(NC1(C(=O)N[C@H](Cc2ccccc2)C(=O)NCC2CCN(CC3CCSCC3)CC2)CCCC1)c1cc2ccccc2s1 [Example 82, Benzo[b]thiophene-2-carboxylic acid [1-(2-phenyl-1(R)-{[1-(tetrahydro-thiopyran-4-ylmethyl)-piperidin-4-ylmethyl]-carbamoyl}-ethylcarbamoyl)cyclopentyl]-amide]
16 | 0.316 nM | O=C(NC1(C(=O)N[C@H](Cc2ccccc2)C(=O)NCCC2CCN(C[C@@H]3CCCN3)CC2)CCCC1)c1ccc2cc(Br)ccc2c1 [Example 84, 6-Bromo-naphthalene-2-carboxylic acid (1-{2-phenyl-1(R)-[2-(1-pyrrolidin-2(S)-ylmethyl-piperidin-4-yl)ethylcarbamoyl]-ethylcarbamoyl}-cyclopentyl)amide TFA salt]
17 | 1.26 nM | N#CCN1CCC(CCNC(=O)[C@@H](Cc2ccccc2)NC(=O)C2(NC(=O)c3cc4ccccc4s3)CCCC2)CC1 [Example 87, Benzo[b]thiophene-2-carboxylic acid (1-{1(R)-[2-(1-cyanomethyl-piperidin-4-yl)-ethylcarbamoyl]-2-phenyl-ethylcarbamoyl}-cyclopentyl)-amide TFA salt]
18 | 0.794 nM | O=C(NC1(C(=O)N[C@H](Cc2ccccc2)C(=O)NCC2CCN(CC3COCOC3)CC2)CCCC1)c1cc2ccccc2s1 [Example 88, Benzo[b]thiophene-2-carboxylic acid (1-{1(R)-[(1-[1,3]dioxan-5-ylmethyl-piperidin-4-ylmethyl)carbamoyl]-2-phenyl-ethylcarbamoyl}-cyclopentyl)-amide TFA salt]
19 | 0.631 nM | O=C(NC1(C(=O)N[C@@H](CNCCC2CCN(C(=O)Cc3cccs3)CC2)Cc2ccccc2)CCCC1)c1cc2ccccc2s1 [Example 94, Benzo[b]thiophene-2-carboxylic acid [1-(1(R)benzyl-2-{2-[1-(thiophen-2-yl-acetyl)-piperidin-4-yl]-ethylamino}-ethylcarbamoyl)-cyclopentyl]-amide TFA salt]
20 | 1.58 nM | NC1(C(=O)NCCNC(=O)[C@@H](Cc2ccccc2)NC(=O)C2(NC(=O)c3cc4ccccc4s3)CCCC2)CCCCC1 [Example 95]
21 | 0.1 nM | NC1(C(=O)N2CCC(CNC(=O)[C@@H](Cc3ccccc3)NC(=O)C3(NC(=O)c4cc5ccccc5s4)CCCC3)CC2)CCCCC1 [Example 96, Benzo[b]thiophene-2-carboxylic acid [1-(1(R)-{[1-(1-aminocyclohexanecarbonyl)-piperidin-4-ylmethyl]-carbamoyl}-2-phenyl-ethylcarbamoyl)-cyclopentyl]-amide TFA salt]
22 | 1.26 nM | O=C(NC1(C(=O)N[C@H](Cc2ccccc2)C(=O)NCCN2CCN(CC3CCOCC3)CC2)CCCC1)c1cc2ccccc2s1 [Example 101, Benzo[b]thiophene-2-carboxylic acid [1-(2-phenyl-1(R)-{2-[4-(tetrahydro-pyran-4-ylmethyl)-piperazin-1-yl]-ethylcarbamoyl}-ethylcarbamoyl)-cyclopentyl)-amide TFA salt]
23 | 0.0794 nM | O=C(NC1(C(=O)N[C@H](Cc2ccccc2)C(=O)NCCCN2CCOCC2)CCCC1)c1cc2ccc(Br)cc2s1 [Example 108, 6-Bromo-benzo[b]thiophene-2-carboxylic acid {1-[1R-(3-morpholin-4-yl-propylcarbamoyl)-2-phenyl-ethylcarbamoyl]-cyclopentyl}-amide]
24 | 0.1 nM | O=C(NC1(C(=O)N[C@H](Cc2ccccc2)C(=O)NCCCN2CCOCC2)CCCCC1)c1cc2ccc(Br)cc2s1 [Example 109, 6-Bromo-benzo[b]thiophene-2-carboxylic acid {1-[1R-(3-morpholin-4-yl-propylcarbamoyl)-2-phenyl-ethylcarbamoyl]-cyclohexyl}-amide]
25 | 3.16 nM | Nc1ccc2cc(C(=O)NC3(C(=O)N[C@H](Cc4ccccc4)C(=O)NCCCN4CCOCC4)CCCC3)sc2c1 [Example 115, 6-Amino-benzo[b]thiophene-2-carboxylic acid {1-[1R-(3-morpholin-4-yl-propylcarbamoyl)-2-phenyl-ethylcarbamoyl]-cyclopentyl]-amide]
